Experiments:
[1] = system: S. aureus (ATCC 6538); assay: MIC and MBC by standardized broth dilution; format: cell-based, Staphylococcus aureus; settings: for MBC: 99.9% killing; for MBC / MIC: >1000 = beyond tested concentration range; for MIC: 24 h, MHB
Protocol: (§1) S. aureus (ATCC 6538) and P. aeruginosa (PA01) were maintained on cryopreservative beads (Microbank) at −80 °C and cultivated in 100 mL of MHB at 37 °C when needed. Overnight broth was centrifuged (3000 rpm, 12 min) and resuspended in PBS to achieve a final inoculum density of approximately 1 × 10^8 cfu mL^–1.
(§2) The microbiological performance of the ionic liquids was assessed using MHB inoculated with S. aureus or P. aeruginosa according to a standardized broth dilution method.[25] A stock solution of 0.2% w/v of ionic liquid was freshly prepared in sterile MHB by stirring at 37 °C until dissolved and then filtered using a sterile 0.22 μm membrane. Serial twofold dilutions were prepared to provide a concentration range of […] to 0.1% w/v. Inoculum was diluted in MHB to produce a final inoculum density of 1 × 10^6 cfu mL^–1, verified by viable count. The inoculum (100 μL) was added to an equal volume of ionic liquid and incubated for 24 h (37 °C, 100 rpm). Positive (100 μL ofMHB/100 μL of inoculum) and negative controls (200 μL of MHB) were included in each assay. A minimum of five replicates of each dilution and controls were included.
(§3) Determination of the MIC was taken as the lowest concentration that produced no visible growth after 24 h incubation.

[2] = system: equine erythrocytes; assay: Hemolysis assay of PILs; format: cell-based; settings: for hemolysis: 1 h, 37 °C; for hemolytic activity (in words): concentrations up to 25 μg mL^–1, equine erythrocytes
Protocol: To assess the potential of phosphonium-AOT ionic liquids to illicit a hemolytic effect, ionic liquids were assessed for the ability to induce hemolysis of equine erythrocytes according to a previous method.[51] Briefly, 10 mL of fresh defribrinated equine blood was rinsed three times with an equal volume of PBS by centrifugation at 900g for 15 min. Erythrocytes were resuspended in PBS to a concentration of 4% (v/v). Erythrocyte suspension (100 μL) was added to each well of a 96-well microtiter plate and exposed to varying concentrations of ionic liquid for 1 h at 37 °C in an orbital incubator. Exposed solutions were subsequently centrifuged at 1000g for 15 min, and 100 μL was transferred to a fresh 96-well microtiter plate and spectrophotometrically read at 414 nm to determine hemoglobin release. Hexadecyltrimethylammonium bromide (8 mM) was used as a positive control (100% hemolysis) and PBS as a negative control (0% hemolysis). Samples were run in quadruplicate, and percentage hemolysis was calculated as follows [drawing 1]

[3] = system: P. aeruginosa (PA01); assay: MIC and MBC by standardized broth dilution; format: cell-based, Pseudomonas aeruginosa; settings: for MBC: 99.9% killing; for MBC / MIC: >1000 = beyond tested concentration range; for MIC: 24 h, MHB
Protocol: as §1, §2, §3

[4] = set-up: method as in PMID 29518336; settings: cited from earlier work
[5] = set-up: method as in earlier work; settings: ref 39 (Kruszewska et al.); cited from earlier work
[6] = system: P. aeruginosa; set-up: method as in PMID 17655912; settings: 10^6 cfu mL^–1 P. aeruginosa inoculum, within 6 h, concentrations as low as 0.08 mg/L; cited from earlier work
[7] = 5 μg mL^–1, equine erythrocytes
[8] = 25 μg mL^–1, equine erythrocytes

Compound	MBC [1] [μg mL^–1]	MIC [1] [μg mL^–1]	MBC ([3]; P. aeruginosa) [μg mL^–1]	MIC ([3]; P. aeruginosa) [μg mL^–1]	also measured
CCCCC(CC)COC(=O)CC(C(=O)OCC(CC)CCCC)S(=O)(=O)[O-].CCCC[P+](CCO)(CCCC)CCCC (stereo not shown) [[P444 2OH][AOT], tributyl(hydroxyethyl)phosphonium docusate]	250	62.5	>1000	>1000	hemolysis [2, 7]: < 10%; hemolysis [2, 8]: 99.39%
CCCCC(CC)COC(=O)CC(C(=O)OCC(CC)CCCC)S(=O)(=O)[O-].CCCCCCCCCCCCCC[P+](CCCCCC)(CCCCCC)CCCCCC [[P666 14][AOT], Trihexyl(tetradecyl)phosphonium docusate]	1000	500	>1000	>1000	hemolytic activity (in words) [2]: not hemolytic
CCCCCCCCCCCCCC[P+](CCCCCC)(CCCCCC)CCCCCC.O=S(=O)([N-]S(=O)(=O)C(F)(F)F)C(F)(F)F [[P666 14][Tf2N], Trihexyl(tetradecyl)phosphonium bis(trifluoromethylsulfonyl)imide]	>1000	>1000	>1000	>1000	antibacterial activity / growth inhibition (in words) ([1]; within the tested concentration range): no antibacterial activity; aqueous solubility [4]: 260 µM; antibacterial activity / growth inhibition (in words) ([3]; P. aeruginosa, within the tested concentration range): no antimicrobial activity
CCCCC(CC)COC(=O)CC(C(=O)OCC(CC)CCCC)S(=O)(=O)[O-].CCCCCCCCCCCCCC[P+](CCCCCCCC)(CCCCCCCC)CCCCCCCC [[P888 14][AOT], trioctyl(tetradecyl)phosphonium docusate]	7.81	3.91	1000	250	MIC potency relative to the other [AOT]-containing ionic liquids [1]: 16–128 fold; hemolysis [2, 7]: < 10%; hemolysis [2, 8]: 102.3%; rise of MBC against P. aeruginosa relative to S. aureus [3]: 128 fold; rise of MIC against P. aeruginosa relative to S. aureus [3]: 64 fold
CCCCC(CC)COC(=O)CC(C(=O)OCC(CC)CCCC)S(=O)(=O)[O-].CCCCCCCCCCCCCCCCCC[P+](C)(CCCCCCCCCCCCCCCCCC)CCCCCCCCCCCCCCCCCC [[P181818 1][AOT], trioctadecyl(methyl)phosphonium docusate]	500	250	>1000	>1000	hemolytic activity (in words) [2]: not hemolytic
CCCCC(CC)COC(=O)CC(C(=O)OCC(CC)CCCC)S(=O)(=O)O (stereo not shown) [sodium docusate]	–	–	–	–	MIC [5]: 3000 μg mL^–1
Silver ions	–	–	–	–	eradication of inoculum [6]: ≤ 99.999%

From publication PMC7160832, “Phosphonium Ionic Liquid-Infused Poly(vinyl chloride) Surfaces Possessing Potent Antifouling Properties” (ACS Omega, 2020)
